Earlier results, collected in PMC4955775 (Bioorganic & medicinal chemistry letters, 2016).
[ ]: non-standard residue; d: D form. Dmt = Cc1cc(O)cc(C)c1C[C@H](N)C(=O)O; Tic = O=C(O)[C@@H]1Cc2ccccc2CN1

Key:
[1] = tested on: μ receptor
[2] = tested on: δ receptor

| Molecule | duration of the antinociceptive effect, times longer than morphine [times] | fold increased binding affinity at μ receptor compared to TIPP-NH2 [1] [fold] | fold increased binding affinity at δ receptor compared to TIPP-NH2 [2] [fold] |
| --- | --- | --- | --- |
| Cc1cc(O)cc(C)c1C[C@H](N)C(=O)N[C@H](CCCNC(=N)N)C(=O)N[C@@H](Cc1ccccc1)C(=O)N[C@@H](CCCCN)C(N)=O [Compound 5, H-Dmt-D-Arg-Phe-Lys-NH2] | 4 | – | – |
| H-[Dmt][Tic]FF-NH2 [DIPP-NH2] | – | 65 | 25 |
